According to patent publication US20240116985A1, “STAPLED PEPTIDES AND METHODS THEREOF” (priority 2020, published 2024):
Like-named read-outs stand apart in the source and are kept apart here.

Tests used:
CHI Log D procedure = format: physicochemical; settings: for chromatographic logD: pH 7.4, CHI Log D; for CHI Log D: pH 7.4
[1] = biological target: T1, full-length beta-Catenin (Uniprot ID P35222) (Homo sapiens, UniProt P35222); assay: Fluorescence polarization IC50 (beta-catenin / 5FAM-TCF4 10-53 competition); format: binding
T1 construct: 10 nM full-length beta-Catenin (Uniprot ID P35222)
T1 sequence (P35222 1-781): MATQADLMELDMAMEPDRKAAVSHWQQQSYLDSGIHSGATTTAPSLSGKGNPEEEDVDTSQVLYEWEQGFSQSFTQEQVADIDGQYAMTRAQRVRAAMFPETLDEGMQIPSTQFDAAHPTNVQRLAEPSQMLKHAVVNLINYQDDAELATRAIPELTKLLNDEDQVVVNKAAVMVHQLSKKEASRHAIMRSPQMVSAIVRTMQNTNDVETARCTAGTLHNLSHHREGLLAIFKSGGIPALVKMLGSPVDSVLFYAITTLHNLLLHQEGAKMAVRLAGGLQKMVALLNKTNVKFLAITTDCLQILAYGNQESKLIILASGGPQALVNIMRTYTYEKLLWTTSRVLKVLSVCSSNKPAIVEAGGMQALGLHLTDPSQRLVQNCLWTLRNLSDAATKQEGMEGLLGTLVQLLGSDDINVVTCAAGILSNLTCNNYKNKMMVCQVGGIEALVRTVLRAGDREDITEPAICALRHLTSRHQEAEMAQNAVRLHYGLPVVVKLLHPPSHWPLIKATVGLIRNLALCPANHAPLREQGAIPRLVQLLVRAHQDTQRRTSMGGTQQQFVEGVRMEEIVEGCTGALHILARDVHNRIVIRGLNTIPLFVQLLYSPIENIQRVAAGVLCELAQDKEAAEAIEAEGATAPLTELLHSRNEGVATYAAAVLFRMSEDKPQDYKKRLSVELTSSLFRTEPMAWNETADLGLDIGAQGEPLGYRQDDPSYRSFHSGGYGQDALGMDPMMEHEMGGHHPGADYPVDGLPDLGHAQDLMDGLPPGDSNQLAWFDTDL

[2] = biological target: T2, beta-catenin/TCF4 engagement (Homo sapiens, UniProt P35222); assay: Nano-BRET target engagement assay (B-cat-Halo & TCF4-Luc in HEK293 cells); format: cell-based
T2 construct: expressed in transfected cells; host or cells: HEK293
T2 sequence (P35222 1-781): T1 sequence (P35222 1-781)

[3] = absolute IC50, read-out: NanoBRET Abs IC50
[4] = fluorescence polarization, beta-catenin, read-out: FP EC50

SMILES | chromatographic logD (CHI Log D procedure) | IC50 ([1]; read-out: beta-Catenin FP IC50) [nM] | IC50 [2, 3] [nM] | CHI Log D (CHI Log D procedure) | IC50 [1, 4] [nM] | IC50 ([2]; read-out: NanoBRET Abs IC50) [nM] | IC50 ([2]; read-out: NanoBRET IC50) [nM] | IC50 ([2]; Abs IC50, read-out: NanoBRET Abs IC50) [nM] | IC50 ([1]; read-out: FP EC50) [nM]
CC(=O)N1CCC[C@]12CC=CCCCC1(CCCC=CCCCOC(=O)N3CC[C@@](C(=O)N[C@@H](Cc4ccsc4)C(=O)N[C@@H](Cc4csc5ccccc45)C(=O)N[C@@H](CCC(N)=O)C(=O)NCCCCCCN)(C3)NC(=O)[C@H](CC(N)=O)NC(=O)[C@H](Cc3ccccc3)NC(=O)[C@H](C)NC(=O)[C@H](C)NC(=O)[C@H](CC(=O)O)NC(=O)[C@H](CC(=O)O)NC1=O)NC(=O)[C@H](CC(C)(C)C)NC(=O)[C@H](CC(=O)O)NC2=O (stereo partly drawn) [I-882, Ac-PL3-Asp-Npg-B5-Asp-Asp-Ala-Ala-Phe-Asn-PyrS2-3Thi-BztA-Gln-6AmHex] | – | 22 | – | 2.028 | 22 | 41400 | 22500 | – | –
CC(=O)N1CCC[C@]12CC=CCCCC1(CCCC=CCCCOC(=O)N3CC[C@@](C(=O)N[C@@H](Cc4ccsc4)C(=O)N[C@@H](Cc4csc5ccccc45)C(=O)N[C@@H](CCC(N)=O)C(N)=O)(C3)NC(=O)[C@H](CC(C)C)NC(=O)[C@H](Cc3ccccc3)NC(=O)[C@H](C)NC(=O)[C@H](C)NC(=O)[C@H](Cc3ccc(C(=O)O)cc3)NC(=O)[C@H](CC(=O)O)NC1=O)NC(=O)[C@H](CC(C)(C)C)NC(=O)[C@H](CC(=O)O)NC2=O (stereo partly drawn) [I-851, Ac-PL3-Asp-Npg-B5-Asp-4COOHF-Ala-Ala-Phe-Leu-PyrS2-3Thi-BztA-Gln-NH2] | 2.15 | 16 | 7600 | – | – | – | – | – | –
CC(=O)N1CCC[C@]12CC=CCCCC1(CCCC=CCCCCOC(=O)N3CC[C@@](C(=O)N[C@@H](Cc4ccsc4)C(=O)N[C@@H](Cc4csc5ccccc45)C(=O)N[C@@H](CC(N)=O)C(=O)N[C@H](C)C(N)=O)(C3)NC(=O)[C@H](CC(N)=O)NC(=O)[C@H](Cc3ccccc3)NC(=O)[C@H](C)NC(=O)[C@H](C)NC(=O)[C@H](CC(=O)O)NC(=O)[C@H](CC(=O)O)NC1=O)NC(=O)[C@H](CC(C)(C)C)NC(=O)[C@H](CC(=O)O)NC2=O (stereo partly drawn) [I-834, Ac-PL3-Asp-Npg-B5-Asp-Asp-Ala-Ala-Phe-Asn-PyrS3-3Thi-BztA-Asn-dAla-NH2] | – | 14 | – | 2.08 | 14 | 33700 | – | – | –
CC(=O)N1CCC[C@]12CC=CCCCC1(CCCC=CCCCOC(=O)N3CC[C@@](C(=O)N[C@@H](Cc4cccc(Cl)c4)C(=O)N[C@@H](Cc4csc5ccccc45)C(=O)N[C@@H](CCC(N)=O)C(N)=O)(C3)NC(=O)[C@H](CC(N)=O)NC(=O)[C@H](Cc3ccccc3)NC(=O)[C@H](C)NC(=O)[C@H](C)NC(=O)[C@H](CN(CC(=O)O)CC(F)(F)F)NC(=O)[C@H](CC(=O)O)NC1=O)NC(=O)[C@H](CC(C)(C)C)NC(=O)[C@H](CC(=O)O)NC2=O (stereo partly drawn) [I-926, Ac-PL3-Asp-Npg-B5-Asp-TfeGA-Ala-Ala-Phe-Asn-PyrS2-3C1F-BztA-Gln-NH2] | – | 43 | – | 2.406 | 43 | – | 17100 | – | –
CC(=O)N1CCC[C@]12CC=CCCCC1(CCCC=CCCCCCC[C@@](C)(C(=O)N[C@@H](Cc3ccccc3Cl)C(=O)N[C@@H](Cc3csc4ccccc34)C(=O)N[C@@H](CCC(N)=O)C(N)=O)NC(=O)[C@H](CC(N)=O)NC(=O)[C@H](Cc3ccccc3)NC(=O)[C@H](C)NC(=O)[C@H](C)NC(=O)[C@H](CN(CC(=O)O)CC(F)(F)F)NC(=O)[C@H](CC(=O)O)NC1=O)NC(=O)[C@H](CC(C)(C)C)NC(=O)[C@H](CC(=O)O)NC2=O (stereo partly drawn) [I-929, Ac-PL3-Asp-Npg-B5-Asp-TfeGA-Ala-Ala-Phe-Asn-S8-2C1F-BztA-Gln-NH2] | 2.74 | 23 | – | – | – | 10300 | 7000 | – | –
CC(=O)N1CCC[C@]12CC=CCCCC1(CCCC=CCCCCOC(=O)N3CC[C@@](C(=O)N[C@@H](Cc4ccsc4)C(=O)N[C@@H](Cc4csc5ccccc45)C(=O)N[C@@H](CCC(N)=O)C(=O)N[C@@H](C)C(N)=O)(C3)NC(=O)[C@H](CC(N)=O)NC(=O)[C@H](Cc3ccccc3)NC(=O)[C@H](C)NC(=O)[C@H](C)NC(=O)[C@H](CC(=O)O)NC(=O)[C@H](CC(=O)O)NC1=O)NC(=O)[C@H](CC(C)(C)C)NC(=O)[C@H](CC(=O)O)NC2=O (stereo partly drawn) [I-825, Ac-PL3-Asp-Npg-B5-Asp-Asp-Ala-Ala-Phe-Asn-PyrS3-3Thi-BztA-Gln-Ala-NH2] | – | 15 | – | 2.028 | 15 | 27500 | – | – | –
CC(=O)N1CCC[C@]12CC=CCCCC1(CCCC=CCCCOC(=O)N3CC[C@@](C(=O)N[C@@H](Cc4ccccc4Cl)C(=O)N[C@@H](Cc4csc5ccccc45)C(=O)N[C@@H](C(N)=O)[C@H](C)O)(C3)NC(=O)[C@H](CO)NC(=O)[C@H](Cc3ccccc3)NC(=O)[C@H](C)NC(=O)[C@H](C)NC(=O)[C@H](CCC(=O)O)NC(=O)[C@H](CC(=O)O)NC1=O)NC(=O)[C@H](CC(C)(C)C)NC(=O)[C@H](CC(=O)O)NC2=O (stereo partly drawn) [I-1036, Ac-PL3-Asp-Npg-B5-Asp-Glu-Ala-Ala-Phe-Ser-PyrS2-2C1F-BztA-dThr-NH2] | 2.46 | 29 | – | – | – | 16600 | – | – | –

Further molecules by falling IC50 ([1]; read-out: beta-Catenin FP IC50), results first:

chromatographic logD (CHI Log D procedure) | IC50 ([1]; read-out: beta-Catenin FP IC50) [nM] | IC50 [2, 3] [nM] | CHI Log D (CHI Log D procedure) | IC50 [1, 4] [nM] | IC50 ([2]; read-out: NanoBRET Abs IC50) [nM] | IC50 ([2]; read-out: NanoBRET IC50) [nM] | IC50 ([2]; Abs IC50, read-out: NanoBRET Abs IC50) [nM] | IC50 ([1]; read-out: FP EC50) [nM] | SMILES
2.96 | 37 | – | – | – | 13500 | 5600 | – | – | CC(=O)N1CCC[C@]12CC=CCCCC1(CCCC=CCCCCCC[C@@](C)(C(=O)N[C@@H](Cc3ccccc3Cl)C(=O)N[C@@H](Cc3csc4ccccc34)C(=O)N[C@@H](CCC(N)=O)C(N)=O)NC(=O)[C@H]([C@@H](C)O)NC(=O)[C@H](Cc3ccccc3)NC(=O)[C@H](C)NC(=O)[C@H](C)NC(=O)[C@H](CN(CC(=O)O)CC(F)(F)F)NC(=O)[C@H](CC(=O)O)NC1=O)NC(=O)[C@H](CC(C)(C)C)NC(=O)[C@H](CC(=O)O)NC2=O (stereo partly drawn) [I-930, Ac-PL3-Asp-Npg-B5-Asp-TfeGA-Ala-Ala-Phe-Thr-S8-2C1F-BztA-Gln-NH2]
2.77 | 35 | 11400 | – | – | – | – | – | – | CC(=O)N1CCC[C@]12CC=CCCCC1(CCCC=CCCCCCC[C@@](C)(C(=O)N[C@@H](Cc3ccccc3Br)C(=O)N[C@@H](Cc3csc4ccccc34)C(=O)N[C@@H](CCC(N)=O)C(N)=O)NC(=O)[C@H](CC(N)=O)NC(=O)[C@H](Cc3ccccc3)NC(=O)[C@H](C)NC(=O)[C@H](C)NC(=O)[C@H](CN(CC(=O)O)CC(F)(F)F)NC(=O)[C@H](CC(=O)O)NC1=O)NC(=O)[C@H](CC(C)(C)C)NC(=O)[C@H](CC(=O)O)NC2=O (stereo partly drawn) [I-932, Ac-PL3-Asp-Npg-B5-Asp-TfeGA-Ala-Ala-Phe-Asn-S8-2BrF-BztA-Gln-NH2]
2.46 | 27 | 6000 | – | – | – | – | – | – | CC(=O)N1CCC[C@]12CC=CCCCC1(CCCC=CCCCOC(=O)N3CC[C@@](C(=O)N[C@@H](Cc4ccccc4Cl)C(=O)N[C@@H](Cc4csc5ccccc45)C(=O)N[C@@H](CCC(N)=O)C(N)=O)(C3)NC(=O)[C@H](Cc3ccccc3)NC(=O)[C@H](Cc3ccccc3)NC(=O)[C@H](C)NC(=O)[C@H](C)NC(=O)[C@H](CN(CC(=O)O)CC(F)(F)F)NC(=O)[C@H](CC(=O)O)NC1=O)NC(=O)[C@H](CC(C)(C)C)NC(=O)[C@H](CC(=O)O)NC2=O (stereo partly drawn) [I-923, Ac-PL3-Asp-Npg-B5-Asp-TfeGA-Ala-Ala-Phe-Phe-PyrS2-2C1F-BztA-Gln-NH2]
– | 7 | – | 2.069 | – | > 20000 | – | – | 7 | CC(=O)N1CCC[C@]12CC=CCCCC1(CCCC=CCCCOC(=O)N3CC[C@@](C(=O)N[C@@H](Cc4ccsc4)C(=O)N[C@@H](Cc4csc5ccccc45)C(=O)N[C@@H](Cc4c[nH]cn4)C(N)=O)(C3)NC(=O)[C@H](CCC(N)=O)NC(=O)[C@H](Cc3ccccc3)NC(=O)[C@H](C)NC(=O)[C@H](C)NC(=O)[C@H](CC(=O)O)NC(=O)[C@H](CC(=O)O)NC1=O)NC(=O)[C@H](CC(C)(C)C)NC(=O)[C@H](CC(=O)O)NC2=O (stereo partly drawn) [I-772, Ac-PL3-Asp-Npg-B5-Asp-Asp-Ala-Ala-Phe-Gln-PyrS2-3Thi-BztA-His-NH2]
– | 5 | – | 2.358 | – | 13700 | – | 13700 | – | CC(=O)N1CCC[C@]12CC=CCCCC1(CCCC=CCCCOC(=O)N3CC[C@@](C(=O)N[C@@H](Cc4ccsc4)C(=O)N[C@@H](Cc4csc5ccccc45)C(=O)N[C@@H](Cc4c[nH]cn4)C(N)=O)(C3)NC(=O)[C@H](CC(N)=O)NC(=O)[C@H](Cc3ccccc3)NC(=O)[C@H](C)NC(=O)[C@H](C)NC(=O)[C@H](CN(CC(=O)O)CC(F)(F)F)NC(=O)[C@H](CC(=O)O)NC1=O)NC(=O)[C@H](CC(C)(C)C)NC(=O)[C@H](CC(=O)O)NC2=O (stereo partly drawn) [I-770, Ac-PL3-Asp-Npg-B5-Asp-TfeGA-Ala-Ala-Phe-Asn-PyrS2-3Thi-BztA-His-NH2]
